Results from patent EP0332679B1, “ANTIVIRAL CO[…] […] AND METHOD FOR TREATING […]” (NEW YORK UNIVERSITY, priority 1987, dated 1989).
Where “and” joins values, the source holds several entries; their conditions need not be identical. Equal values may be shown once. Entries after “also recorded” stand apart in the source; their conditions may differ.

Tests used:
[1] = tested on: Friend Leukemia Virus (FV); assay: Liver function (serum liver-associated proteins) of FV infected mice with or without compound; assay type: in vivo, BALB/c mice; conditions: for CHOLEST: pooled serum of 4 mice
Description: BALB/c mice were inoculated with FV at a concentration of 2x10⁵ FFU. Each group of animals contained 4 mice, and analyses were done in pooled aliquots.
In Table 3, BU = Total Bilirubin, AP = Alkaline phosphatase, LDH = Lactate dehydrogenase, SGOT = Serum glutamyl aminotransferase, SGPT = […], and GGT = Gamma-glutamyl-transpeptidase.

[2] = tested on: Friend Leukemia Virus (FV); assay: Splenomegaly after Friend Leukemia Virus infection, compound given intraperitoneally 24 h after intravenous virus; assay type: in vivo, BALB/c mice; conditions: for Spleen weight: individual mice
Description: Friend Leukemia virus (FV) an aggressive retrovirus induces an acute erythroleukemia in sensitive strains of mice such as BALB/c and NIH SWISS mice (as described in Friend, C. J. Exp. Med. 105: 307-324, 1957; Friend, C. et al Nat. Cancer Inst. Monogr. 22: 505-522, 1966; Friend, C. et al Proc. Natl. Acad. Sci. U.S.A. 68: 378-383, 1971). The malignant transformation is the result of the combined activities of the spleen focus forming virus (SFFV) and the ecotropic murine Friend Leukemia helper virus (F-MuLv). The acute erythroleukemia is characterized by hepatosplenomegaly (a marked increase in the size of the spleen and liver) and a severe anemia.
Friend Leukemia virus was prepared by homogenizing the enlarged spleen of a mouse previously infected with FV, 10 days after intravenous virus injection. The spleen was homogenized in phosphate buffered saline in a volume equal to 10 times the weight of the isolated spleen.
The effects of Hy and Ps on the increase in spleen size (splenomegaly) of BALB/c mice (Jackson Labs, Bar Harbor, ME) was examined. […] The animals were then sacrificed ten days later and their spleens weighed.

[3] = tested on: Friend Leukemia Virus (FV); assay: Splenomegaly after simultaneous intravenous co-administration of compound with FV; assay type: in vivo, mice; conditions: for Spleen Weights: individual mice
Procedure: A different experimental design was also tested involving the simultaneous intravenous co-administration of Ps with the FV complex. In this case, the viral preparation was mixed with Ps at various concentrations and the mixture was injected into the mouse tail vein in a final volume of 0.5ml. The mice were sacrificed ten days later, the spleens weighed and the level of inhibition of splenomegaly subsequently determined.

[4] = tested on: Radiation Leukemia Virus (RadLV); assay: H-2 antigen expression in thymocytes (FACS) after intrathymic inoculation of radiation leukemia virus; assay type: in vivo, B10.T(6R) mice
Description: The intrathymic inoculation of murine radiation leukemia virus in susceptible strains of mice results in the malignant transformation of the thymocytes and the development of overt leukemia (as described in Meruelo, D. et al J. Exp. Med. 147: 470-487, 1978). […] Among the early events which follow the viral infection in some mouse strains is a dramatic increase in the cell surface expression of class I H-2 antigens. This increase is then followed by a reduction in the expression of these antigens after the malignant transformation and subsequent development of leukemia. The changes in H-2 antigen expression have been utilized to monitor viral infectivity and to determine the effects of Hy and Ps on the level of infectivity of this virus.
Murine radiation leukemia virus (RadLV) was inoculated intrathymically into B10.T(6R) mice as described in Meruelo et al (supra). Groups of six mice were treated 24 h later with 30 µg per mouse of compound Hy administered intraperitoneally in isotonic saline solution. The mice were sacrificed ten days later and the expression of Class I H-2 antigens determined by analysis with a fluorescence activated cell sorter (Ortho Cytofluorograph Model 50H, Ortho Diagnostic Systems, Westwood, MA) (FACS), using X-56 anti-H-2D^d mouse monospecific antibodies (as described in Meruelo, et al supra; similar antibodies are available as ATCC No. HB75, American Type Culture Collection, Rockville, MD).

[5] = in vivo; cited from earlier work
[6] = in vivo; cited from earlier work; remark: listed apart in the source
[7] = IPFVIVPS: FV intraperitoneal, Ps intravenous, pooled serum
[8] = IVFVIPPS: FV intravenous, Ps intraperitoneal, pooled serum
[9] = FV 2x10^5 FFU, 2 injections 80 μg/mouse
[10] = FV 2x10^5 FFU, single i.p. injection 80 μg/mouse
[11] = FV 10^6 FFU, 2 injections 80 µg/mouse
[12] = FV 10^6 FFU, single i.p. injection 80 µg/mouse

SMILES: Cc1cc(O)c2c(=O)c3c(O)cc(O)c4c5c(O)cc(O)c6c(=O)c7c(O)cc(CO)c8c1c2c(c34)c(c65)c78 [Ps, pseudohypericin]
- CHOLEST ([1]; IPFVIVPS: FV intraperitoneal (2x10^5 FFU), Ps intravenous): 137 mg/dL
- ALBUMIN [1, 7]: 3.2 g/dL
- AP (Alkaline phosphatase) [1, 7]: 200 IU/l
- BU (Total Bilirubin) [1, 7]: 0.3 mg/dL
- GGT (Gamma-glutamyl-transpeptidase) [1, 7]: 4 miu/ml
- LDH (Lactate dehydrogenase) [1, 7]: 2305 IU/l
- SGOT [1, 7]: 244 IU/l
- SGPT [1, 7]: 135 IU/l
- Total PROTEIN [1, 7]: 5.5 g/dL
- CHOLEST ([1]; IVFVIPPS: FV intravenous (2x10^5 FFU), Ps intraperitoneal): 109 mg/dL
- ALBUMIN [1, 8]: 3.4 g/dL
- AP (Alkaline phosphatase) [1, 8]: 226 IU/l
- BU (Total Bilirubin) [1, 8]: 0.1 mg/dL
- LDH (Lactate dehydrogenase) [1, 8]: 3303 IU/l
- SGOT [1, 8]: 213 IU/l
- SGPT [1, 8]: 99 IU/l
- Total PROTEIN [1, 8]: 5.7 g/dL
- % Inhib (splenomegaly) [2, 9]: 81.7%
- Net change from control (spleen weight) [2, 9]: Net change from control=0.1292
- Spleen weight, mean (x̄) [2, 9]: x̄=0.3138±0.1197 g
- % Inhib (splenomegaly) ([2]; FV 2x10^5 FFU, 2 injections 80 μg/mouse, listed as PS): % Inhib=81.15
- % Inhib (splenomegaly) [2, 10]: 89.6%
- Net change from control (spleen weight) [2, 10]: Net change from control=0.0714
- Spleen weight, mean (x̄) [2, 10]: x̄=0.2560±0.0723 g
- % Inhib (splenomegaly) ([2]; FV 2x10^5 FFU, single i.p. injection 80 μg/mouse, listed as PS): % Inhib=89.58
- % Inhib (splenomegaly) [2, 11]: 90.7%
- Net change from control (spleen weight) [2, 11]: Net change from control=0.0841
- Spleen weight, mean (x̄) [2, 11]: x̄=0.2687±0.0621 g
- % Inhib (splenomegaly) ([2]; FV 10^6 FFU, 2 injections 80 µg/mouse, listed as PS): % Inhib=90.70
- % Inhib (splenomegaly) [2, 12]: 93.8%
- Net change from control (spleen weight) [2, 12]: Net change from control=0.0558
- Spleen weight, mean (x̄) [2, 12]: x̄=0.2404±0.0482 g
- % Inhib (splenomegaly) ([2]; FV 10^6 FFU, single i.p. injection 80 µg/mouse, listed as PS): % Inhib=93.82
- Spleen weight [2, 9]: 0.2722 Spleen weight (g ) and 0.2438 Spleen weight (g ) and 0.4924 Spleen weight (g ) and 0.2469 Spleen weight (g )
- Spleen weight [2, 10]: 0.2208 Spleen weight (g ) and 0.1791 Spleen weight (g ) and 0.3457 Spleen weight (g ) and 0.2784 Spleen weight (g )
- Spleen weight ([2]; FV 10^6 FFU i.v., 2 daily consecutive i.p. injections of 80 µg/mouse): 0.2457 Spleen weight (g ) and 0.3400 Spleen weight (g ) and 0.2938 Spleen weight (g ) and 0.1956 Spleen weight (g )
- Spleen weight ([2]; FV 10^6 FFU i.v., single i.p. injection 80 µg/mouse 24 h later, sacrificed ten days later): 0.2831 Spleen weight (g ) and 0.2761 Spleen weight (g ) and 0.2215 Spleen weight (g ) and 0.1810 Spleen weight (g )
- % inhibition (splenomegaly) ([3]; 5mcg per mouse i.v. with FV): 75.44%
- Spleen Weights, mean (x̄) ([3]; 5mcg per mouse i.v. with FV): x̄=0.3862 ±0.0353 grams
- % inhibition (splenomegaly) ([3]; 5mcg per mouse i.v. with FV, listed as PS): = 75.44%
- % inhibition (splenomegaly) ([3]; 20 mcg per mouse i.v. with FV): 100%
- Spleen Weights, mean (x̄) ([3]; 20 mcg per mouse i.v. with FV): x̄=0.1614 ±0.0253 grams
- % inhibition (splenomegaly) ([3]; 20 mcg per mouse i.v. with FV, listed as PS): 100%
- % inhibition (splenomegaly) ([3]; 50mcg per mouse i.v. with FV): 100%
- Spleen Weights, mean (x̄) ([3]; 50mcg per mouse i.v. with FV): x̄=0.1572 ±0.0217 grams
- % inhibition (splenomegaly) ([3]; 50mcg per mouse i.v. with FV, listed as PS): 100%
- Spleen Weights ([3]; 5mcg per mouse i.v. mixed with FV, sacrificed ten days later): 0.3425 grams and 0.3766 grams and 0.4005 grams and 0.4255 grams
- Spleen Weights ([3]; 20 mcg per mouse i.v. mixed with FV): 0.1655 grams and 0.1426 grams and 0.1433 grams and 0.1966 grams
- Spleen Weights ([3]; 50mcg per mouse i.v. mixed with FV): 0.1830 grams and 0.1674 grams and 0.1422 grams and 0.1365 grams
- effect on RadLV-induced increase in H-2 expression (in words) ([4]; 30 µg per mouse i.p. 24 h after viral inoculation): No effects on H-2 expression
- mean fluorescent intensity in fluorescent units ([4]; individual mice, 30 μg/mouse i.p. 24 h after intrathymic RadLV, thymocytes ten days later): (713.3) fluorescent units; also recorded: (639) fluorescent units
- % of cells stained with antibody ([4]; individual mice, 30 μg/mouse i.p. 24 h after intrathymic RadLV, thymocytes ten days later, anti-H-2D^d antibody): 97.4% and 94.3%

SMILES: Cc1cc(O)c2c(=O)c3c(O)cc(O)c4c5c(O)cc(O)c6c(=O)c7c(O)cc(C)c8c1c2c(c34)c(c78)c65 [Hy, hypericin]
- photosensitivity (in words) [5]: produce photosensitivity upon ingestion
- % inhibition (of virus-induced increase in H-2 antigen expression) ([4]; mouse, in vivo): (1) % inhibition = 100-[(Treated 30 μg) - (Base Line) / Virus Induced - Base Line] x100=82%
- % of cells stained with antibody ([4]; mouse, in vivo, ip): 76.7% and 77.2% and 96.3% and 84.8% and 54.0% and 97.8%
- % of cells stained with antibody, mean (x̄) ([4]; mouse, in vivo, ip): x̄=81.13%
- effect on RadLV-induced increase in H-2 expression (in words) ([4]; mouse, in vivo, ip): significant inhibition in the increase in H-2 expression in four of the six mice tested
- effect on the human organism (in words) [6]: tonic and tranquilizing effect
